Laboratory results as given in article PMC6680932, “Structure–Antioxidant–Antiproliferative Activity Relationships of Natural C7 and C7–C8 Hydroxylated Flavones and Flavanones” (Antioxidants, 2019).

Tests used:
[1] = system: MV-4-11 (biphenotypic B myelomonocytic leukemia); test: Antiproliferative activity in vitro, MTT assay; assay type: cell-based, human; conditions: Homo sapiens, MV4-11, 72 h exposure, read-out: IC50 ± SD MV-4-11
[2] = system: MCF 10A (breast cells); test: Antiproliferative activity in vitro, SRB assay; assay type: cell-based, human; conditions: Homo sapiens, MCF-10A; 72 h exposure, SRB; normal cell line; read-out: IC50 ± SD MCF 10A
[3] = system: MCF7 (breast carcinoma); test: Antiproliferative activity in vitro, SRB assay; assay type: cell-based, human; conditions: Homo sapiens, MCF7; 72 h exposure, SRB; read-out: IC50 ± SD MCF7
[4] = system: LoVo/DX (colon cancer doxorubicin-resistant); test: Antiproliferative activity in vitro, SRB assay; assay type: cell-based, human; conditions: Homo sapiens, LoVo/DX, 72 h exposure, read-out: IC50 ± SD LoVo/DX
[5] = FRAP (ferric ion reducing antioxidant power) assay; conditions: 10 min, 593 nm; mean ± SD
Procedure: The antioxidant capacity of flavonoids was measured in three separate tests: ABTS, DPPH, and ferric ion reducing antioxidant power (FRAP) assays (ABTS, DPPH, and FRAP reagents from Sigma-Aldrich). All tested compounds were dissolved in DMSO. All determinations were performed in triplicate. Standard curves were prepared for all assays using different concentrations of Trolox (6-hydroxy-2,5,7,8-tetramethylchroman-2-carboxylic acid) (Sigma-Aldrich). Trolox is a water-soluble analogue of vitamin E with high antioxidant activity, commonly used as a control and a reference in studies of antioxidant activity. The results were expressed as the equivalent of μmol Trolox per μmol of the test compound. The absorbance was measured using a UV-2401 PC spectrophotometer (Shimadzu, Kyoto, Japan). Concentrations of the tested samples were in the range from 50 µg/mL to 10 mg/mL.
The FRAP method is based on measuring the ability of antioxidants to reduce ferric 2,4,6-tris(2-pyridyl)-1,3,5-triazine [Fe(III)-TPTZ] in the blue colored ferrous form, which absorbs light at λ = 593 nm. The Fe(III)-TPTZ reagent was prepared as a mixture of acetate buffer (pH 3.6), 10 mM TPTZ in 40 mM HCl, and 20 mM FeCl3 in the ratio of 10:1:1 (v/v/v). The FRAP reagent was freshly prepared before each experiment. The samples (0.1 mL) were mixed in polystyrene cuvettes with 3 mL of ferric complex and 0.9 mL of distilled water. The absorbance was measured after 10 min at λ = 593 nm.

O=c1cc(-c2ccc(O)cc2)oc2cc(O)cc(O)c12 [Compound 2, apigenin]
IC50 [1]: 8.18 ± 2.76 µM | IC50 [2]: 35.7 ± 11.9 µM | IC50 [3]: 22.5 ± 1.29 µM | IC50 [4]: 11.6 ± 1.35 µM

O=C1C[C@@H](c2ccc(O)cc2)Oc2cc(O)cc(O)c21 [Compound 6, naringenin]
IC50 [1]: 146 ± 19.1 µM | IC50 [2]: 185 ± 23.2 µM | IC50 [3]: 215 ± 32.3 µM | IC50 [4]: 129 ± 9.74 µM

O=c1cc(-c2ccc(O)cc2)oc2c(O)c(O)cc(O)c12 [Compound 10, 8-hydroxyapigenin]
TEAC FRAP [5]: 7.824 ± 0.657 µmol trolox per µmol of tested
